ChEMBL document CHEMBL6109089, “Design, synthesis and optimization of Apcin analogues as Cdc20 inhibitors for triple-negative breast cancer therapy” (Eur J Med Chem, 2025)

Columns and labels:
MDA-MB-231 [1] = experiment: cells; conditions: Homo sapiens, MDA-MB-231, 48 h
Description: Antiproliferative activity against human MDA-MB-231 cells assessed as inhibition of cell growth measured after 48 hrs by CCK-8 method

[2] = Antiproliferative activity against human HK-2 cells assessed as inhibition of cell growth measured after 48 hrs by CCK-8 method; assay type: toxicity, cell-based
[3] = Selectivity index, ratio of IC50 for antiproliferative activity against human MCF7 cells to IC50 for antiproliferative activity against human MDA-MB-231 cells; assay type: cell-based
[4] = Antiproliferative activity against human MCF-10A cells assessed as inhibition of cell growth measured after 48 hrs by CCK-8 method; assay type: toxicity, cell-based
[5] = Antiproliferative activity against rat H9c2 cells assessed as inhibition of cell growth measured after 48 hrs by CCK-8 method; assay type: toxicity, cell-based
MDA-MB-436 = experiment: cells; conditions: Homo sapiens, MDA-MB-436, 48 h
Description: Antiproliferative activity against human MDA-MB-436 cells assessed as inhibition of cell growth measured after 48 hrs by CCK-8 method

[6] = Selectivity index, ratio of IC50 for antiproliferative activity against human MCF-10A cells to IC50 for antiproliferative activity against human MDA-MB-231 cells; assay type: toxicity, cell-based; conditions: MCF-10A cells and MDA-MB-231 cells, read-out: Ratio IC50
MCF7 = experiment: cells; conditions: Homo sapiens, MCF7, 48 h
Description: Antiproliferative activity against human MCF7 cells assessed as inhibition of cell growth measured after 48 hrs by CCK-8 method

HeLa = experiment: cells; conditions: Homo sapiens, 48 h
Description: Antiproliferative activity against human HeLa cells assessed as inhibition of cell growth measured after 48 hrs by CCK-8 method

SiHa = experiment: cells; conditions: Homo sapiens, 48 h
Description: Antiproliferative activity against human SiHa cells assessed as inhibition of cell growth measured after 48 hrs by CCK-8 method

MDA-MB-231 [7] = experiment: Induction of apoptosis in human MDA-MB-231 cells assessed as late apoptotic cells at 300 uM incubated for 24 hrs by Annexin V-FITC/PI staining based flow cytometry analysis (reference value: 0.46%); assay type: functional
MDA-MB-231 [8] = experiment: Induction of cell cycle arrest in human MDA-MB-231 cells assessed as increase in accumulation of cells at G2/M phase at 300 uM measured after 24 hrs by PI staining based flow cytometry analysis (reference value: 26.38%); assay type: functional
MDA-MB-231 [9] = experiment: Induction of apoptosis in human MDA-MB-231 cells assessed as viable cells at 300 uM incubated for 24 hrs by Annexin V-FITC/PI staining based flow cytometry analysis (reference value: 94.1%); assay type: functional; conditions: read-out: Activity
MDA-MB-231 [10] = experiment: Antitumor activity against human MDA-MB-231 cells xenografted in BALB/c nude mouse model assessed as reduction in tumor growth at 30 mg/kg, ip administered daily for 18 days by vernier caliper method relative to control; assay type: functional; design: scale not given: the % may be the effect or the level left; conditions: time 18 day
[11] = molecular target: Cell division cycle protein 20 homolog (Homo sapiens, UniProt Q12834); experiment: Binding affinity to Cdc20 (unknown origin) assessed as dissociation constant measured after 360 secs by surface plasmon resonance assay
MDA-MB-231 [12] = experiment: Induction of apoptosis in human MDA-MB-231 cells assessed as early apoptotic cells at 300 uM incubated for 24 hrs by Annexin V-FITC/PI staining based flow cytometry analysis (reference value: 5.40%); assay type: functional
MDA-MB-231 [13] = experiment: Induction of apoptosis in human MDA-MB-231 cells assessed as necrotic cells at 300 uM incubated for 24 hrs by Annexin V-FITC/PI staining based flow cytometry analysis (reference value: 0.033%); assay type: functional

Sequence of Cell division cycle protein 20 homolog (Q12834 whole entry): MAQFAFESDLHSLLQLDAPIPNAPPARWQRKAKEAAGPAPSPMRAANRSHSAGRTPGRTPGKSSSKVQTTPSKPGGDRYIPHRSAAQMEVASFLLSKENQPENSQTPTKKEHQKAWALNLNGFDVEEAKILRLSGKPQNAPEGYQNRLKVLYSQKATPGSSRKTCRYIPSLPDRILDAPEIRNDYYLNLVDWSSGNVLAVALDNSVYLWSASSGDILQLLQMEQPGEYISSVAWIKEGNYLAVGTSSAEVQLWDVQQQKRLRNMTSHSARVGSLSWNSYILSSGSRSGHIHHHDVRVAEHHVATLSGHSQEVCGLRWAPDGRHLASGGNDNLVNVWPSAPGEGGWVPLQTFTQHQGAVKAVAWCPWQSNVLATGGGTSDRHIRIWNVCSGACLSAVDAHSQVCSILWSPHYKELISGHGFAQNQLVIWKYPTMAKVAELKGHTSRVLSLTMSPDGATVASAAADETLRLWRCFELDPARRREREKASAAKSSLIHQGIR

`O=C(NC(Nc1nc(Cl)cc(Nc2ccc(C(F)(F)F)cc2)n1)C(Cl)(Cl)Cl)OCCCc1cccnc1` (centres undefined) showed an IC50 (MDA-MB-231 [1]) of 13.8 µM.
In the case of `Cc1ncc([N+](=O)[O-])n1CCOC(=O)NC(Nc1nc(Cl)cc(Nc2ccc(C(F)(F)F)cc2)n1)C(Cl)(Cl)Cl` (centres undefined), the IC50 at 48 h [2] is reported as 10.1 µM, the “Ratio IC50” value [3] is reported as 1.86 and the IC50 at 48 h [4] is reported as 3.7 µM. The IC50 at 48 h [5] was 22.5 µM, the IC50 (MDA-MB-231 [1]) was 3.98 µM and the IC50 (MDA-MB-436) was 4.6 µM. It also gave a selectivity ratio [6] of 0.93 and an IC50 (MCF7) of 7.42 µM.
`CCN(CC)c1cc(Cl)nc(NC(NC(=O)OCCn2c([N+](=O)[O-])cnc2C)C(Cl)(Cl)Cl)n1` (centres undefined) gave an IC50 (HeLa) of 38.9 µM, an IC50 (MDA-MB-231 [1]) of 16.2 µM and an IC50 (SiHa) of 35.7 µM.
Compound `Cc1ncc([N+](=O)[O-])n1CCOC(=O)NC(Nc1nc(Cl)cc(Nc2cccc(F)c2)n1)C(Cl)(Cl)Cl` (centres undefined) has an IC50 (MDA-MB-231 [1]) of 8.67 µM.
`Cc1ccc(Nc2cc(Cl)nc(NC(NC(=O)OCCn3c([N+](=O)[O-])cnc3C)C(Cl)(Cl)Cl)n2)cc1` (centres undefined) showed an IC50 (MDA-MB-231 [1]) of 7.62 µM.
`Cc1ncc([N+](=O)[O-])n1CCOC(=O)NC(Nc1nc(Cl)cc(-c2ccccc2)n1)C(Cl)(Cl)Cl` (centres undefined) showed an IC50 (HeLa) of 33.2 µM, an IC50 (MDA-MB-231 [1]) of 18.5 µM and an IC50 (SiHa) of 41.4 µM.
With `Cc1ncc([N+](=O)[O-])n1CCOC(=O)NC(Nc1ncc(Cl)c(Nc2ccc(C(F)(F)F)cc2)n1)C(Cl)(Cl)Cl` (centres undefined) the IC50 (MDA-MB-231 [1]) was 4.19 µM.
In the case of `O=C(NC(Nc1nc(Cl)cc(Nc2ccc(C(F)(F)F)cc2)n1)C(Cl)(Cl)Cl)OCCNC(=O)c1cnc(Cl)s1` (centres undefined), the IC50 (MDA-MB-231 [1]) is reported as 3.89 µM.
`COc1cc(N)nc(NC(NC(=O)OCCn2c([N+](=O)[O-])cnc2C)C(Cl)(Cl)Cl)n1` (centres undefined) gave an IC50 (HeLa) greater than 100 µM, an IC50 (MDA-MB-231 [1]) greater than 100 µM and an IC50 (SiHa) of 89.4 µM.
In the case of `Cc1cccc(Nc2cc(Cl)nc(NC(NC(=O)OCCn3c([N+](=O)[O-])cnc3C)C(Cl)(Cl)Cl)n2)c1` (centres undefined), the IC50 (MDA-MB-231 [1]) is reported as 7.79 µM.
Compound `O=C(NC(Nc1nc(Cl)cc(Nc2ccc(C(F)(F)F)cc2)n1)C(Cl)(Cl)Cl)OCCc1cccnc1` (centres undefined) has an IC50 (MDA-MB-231 [1]) of 13.8 µM.
`Cc1ncc([N+](=O)[O-])n1CCOC(=O)NC(Nc1nc(Cl)cc(Nc2ccccc2F)n1)C(Cl)(Cl)Cl` (centres undefined) showed an IC50 (MDA-MB-231 [1]) of 16 µM.
In the case of `Cc1ncc([N+](=O)[O-])n1CCOC(=O)NC(Nc1nc(N)cc(Cl)n1)C(Cl)(Cl)Cl` (centres undefined), the IC50 (HeLa) is reported as 45 µM, the IC50 (MDA-MB-231 [1]) is reported as greater than 100 µM and the IC50 (SiHa) is reported as 39 µM.
Work on `Cc1ncc([N+](=O)[O-])n1CCOC(=O)NC(Nc1ncccn1)C(Cl)(Cl)Cl` (centres undefined) yielded an IC50 at 48 h [2] of 151 µM, an Activity (MDA-MB-231 [7]) of 0.95% and an Activity (MDA-MB-231 [8]) of 38.8%. For the same compound, the viability at 300 µM (MDA-MB-231 [9]) was 59.7%, the “Ratio IC50” value [3] was 1.53 and the Activity (MDA-MB-231 [10]) was 53%. For the same compound, the IC50 (HeLa) was 198 µM, the IC50 at 48 h [4] was 161 µM and the IC50 at 48 h [5] was 252 µM. The IC50 (MDA-MB-231 [1]) was 192 µM, the IC50 (MDA-MB-436) was 176 µM and the Kd [11] was 236 µM. For the same compound, the Activity (MDA-MB-231 [12]) was 38.6%, the selectivity ratio [6] was 0.84 and the IC50 (SiHa) was 203 µM. For the same compound, the IC50 (MCF7) was 292 µM and the Activity (MDA-MB-231 [13]) was 0.7%.
`Cn1ccnc1C(=O)NCCOC(=O)NC(Nc1nc(Cl)cc(Nc2ccc(C(F)(F)F)cc2)n1)C(Cl)(Cl)Cl` (centres undefined) gave an IC50 (MDA-MB-231 [1]) of 7.22 µM.
In the case of `Cc1ncc([N+](=O)[O-])n1CCOC(=O)NC(Nc1nc(Cl)cc(N(C)C)n1)C(Cl)(Cl)Cl` (centres undefined), the IC50 (HeLa) is reported as 70.2 µM, the IC50 (MDA-MB-231 [1]) is reported as 36.4 µM and the IC50 (SiHa) is reported as 47.4 µM.
For `O=C(NC(Nc1nc(Cl)cc(Nc2ccc(C(F)(F)F)cc2)n1)C(Cl)(Cl)Cl)OCCCCc1ccccc1` (centres undefined), the IC50 (MDA-MB-231 [1]) was 7.21 µM.
`Cc1ncc([N+](=O)[O-])n1CCOC(=O)NC(Nc1nc(Cl)cc(Nc2ccc(C#N)cc2)n1)C(Cl)(Cl)Cl` (centres undefined) gave an IC50 (MDA-MB-231 [1]) of 11 µM.
Compound `O=C(NC(Nc1nc(Cl)cc(Nc2ccc(C(F)(F)F)cc2)n1)C(Cl)(Cl)Cl)OCCNC(=O)c1csc(Cl)n1` (centres undefined) has an IC50 (MDA-MB-231 [1]) of 7.27 µM.
`O=C(NC(Nc1nc(Cl)cc(Nc2ccc(C(F)(F)F)cc2)n1)C(Cl)(Cl)Cl)OCCCc1ccccc1` (centres undefined) gave an IC50 (MDA-MB-231 [1]) of 6.69 µM.
Work on `Cc1ncc([N+](=O)[O-])n1CCOC(=O)NC(Nc1nc(N)cc(F)n1)C(Cl)(Cl)Cl` (centres undefined) yielded an IC50 (HeLa) of 65.4 µM, an IC50 (MDA-MB-231 [1]) greater than 100 µM and an IC50 (SiHa) greater than 100 µM.
`O=C(NC(Nc1nc(Cl)cc(Nc2ccc(C(F)(F)F)cc2)n1)C(Cl)(Cl)Cl)OCCCc1ccncc1` (centres undefined) showed an IC50 (MDA-MB-231 [1]) of 7.27 µM.
With `Cc1ncc([N+](=O)[O-])n1CCOC(=O)NC(Nc1nc(Cl)cc(Nc2ccccc2)n1)C(Cl)(Cl)Cl` (centres undefined) the IC50 at 48 h [2] was 18.3 µM, the IC50 (HeLa) was 19.6 µM and the IC50 at 48 h [4] was 22.5 µM. It also gave an IC50 at 48 h [5] of 15.1 µM, an IC50 (MDA-MB-231 [1]) of 14.1 µM and an IC50 (MDA-MB-436) of 13.7 µM. The IC50 (SiHa) was 24.4 µM and the IC50 (MCF7) was 9 µM.
`Cc1ncc([N+](=O)[O-])n1CCOC(=O)NC(Nc1nc(Cl)cc(Nc2ccc(F)cc2)n1)C(Cl)(Cl)Cl` (centres undefined) showed an IC50 (MDA-MB-231 [1]) of 8.13 µM.
In the case of `O=C(NC(Nc1nc(Cl)cc(Nc2ccc(C(F)(F)F)cc2)n1)C(Cl)(Cl)Cl)OCCc1ccccn1` (centres undefined), the IC50 (MDA-MB-231 [1]) is reported as 5.34 µM.
Work on `CNc1cc(Cl)nc(NC(NC(=O)OCCn2c([N+](=O)[O-])cnc2C)C(Cl)(Cl)Cl)n1` (centres undefined) yielded an IC50 (HeLa) of 72.3 µM, an IC50 (MDA-MB-231 [1]) of 56.7 µM and an IC50 (SiHa) of 56.6 µM.
In the case of `O=C(NC(Nc1nc(Cl)cc(Nc2ccc(C(F)(F)F)cc2)n1)C(Cl)(Cl)Cl)OCCc1ccncc1` (centres undefined), the IC50 (MDA-MB-231 [1]) is reported as 7.52 µM.
`Cc1ncc([N+](=O)[O-])n1CCOC(=O)NC(Nc1ncc(Br)c(Nc2ccc(C(F)(F)F)cc2)n1)C(Cl)(Cl)Cl` (centres undefined) gave an IC50 (MDA-MB-231 [1]) of 4.58 µM.
In the case of `Cc1ncc([N+](=O)[O-])n1CCOC(=O)NC(Nc1nc(Cl)cc(Nc2cccc(C#N)c2)n1)C(Cl)(Cl)Cl` (centres undefined), the IC50 (MDA-MB-231 [1]) is reported as 16.2 µM.
`Cc1cc(N)nc(NC(NC(=O)OCCn2c([N+](=O)[O-])cnc2C)C(Cl)(Cl)Cl)n1` (centres undefined) gave an IC50 (HeLa) greater than 100 µM, an IC50 (MDA-MB-231 [1]) greater than 100 µM and an IC50 (SiHa) greater than 100 µM.
Work on `Cc1ncc([N+](=O)[O-])n1CCOC(=O)NC(Nc1nc(Cl)cc(Nc2ccc(OC(F)(F)F)cc2)n1)C(Cl)(Cl)Cl` (centres undefined) yielded an IC50 (MDA-MB-231 [1]) of 5.65 µM.
Work on `Cc1ncc(C(=O)NCCOC(=O)NC(Nc2nc(Cl)cc(Nc3ccc(C(F)(F)F)cc3)n2)C(Cl)(Cl)Cl)s1` (centres undefined) yielded an IC50 (MDA-MB-231 [1]) of 4.36 µM.
With `Cc1ncc([N+](=O)[O-])n1CCOC(=O)NC(Nc1nc(Cl)cc(Nc2cccc(OC(F)(F)F)c2)n1)C(Cl)(Cl)Cl` (centres undefined) the IC50 (MDA-MB-231 [1]) was 6.76 µM.
`Cc1ncc([N+](=O)[O-])n1CCOC(=O)NC(Nc1nc(Cl)cc(Nc2cccc(C(F)(F)F)c2)n1)C(Cl)(Cl)Cl` (centres undefined) showed an IC50 (MDA-MB-231 [1]) of 6.01 µM.
For `O=C(NC(Nc1nc(Cl)cc(Nc2ccc(C(F)(F)F)cc2)n1)C(Cl)(Cl)Cl)OCCCc1ccccn1` (centres undefined), the IC50 (MDA-MB-231 [1]) was 11.1 µM.
`Cc1ncc([N+](=O)[O-])n1CCOC(=O)NC(Nc1nc(Nc2ccc(C(F)(F)F)cc2)cc(C(F)(F)F)n1)C(Cl)(Cl)Cl` (centres undefined) showed an IC50 (MDA-MB-231 [1]) of 5.23 µM.
With `O=C(NC(Nc1nc(Cl)cc(Nc2ccc(C(F)(F)F)cc2)n1)C(Cl)(Cl)Cl)OCc1ccccc1` (centres undefined) the IC50 (MDA-MB-231 [1]) was 7.63 µM.
Compound `O=C(NC(Nc1nc(Cl)cc(Nc2ccc(C(F)(F)F)cc2)n1)C(Cl)(Cl)Cl)OCCc1ccccc1` (centres undefined) has an IC50 (MDA-MB-231 [1]) of 6.61 µM.
